Results from patent US20210164051A1, “METHODS OF DETECTION AND ANALYSIS OF NUCLEIC ACID IN NEURAL-DERIVED EXOSOMES” (priority 2019, published 2021).
Read-outs that look alike come from different tables or passages of the source.

Tests used:
tau AT8+ NFT = settings: averaged across 7 cortical regions
IbA1+ microglia = settings: for IbA1+ Density / IbA1+ microglia Size: median ± SEM, n = 8
myelinated axon fibers = settings: 7 of 16 vervets exposed to BMAA; NS, p=0.0956
[1] = tested on: TDP-43+ anterior horn motor neurons
[2] = tested on: anterior horn motor neurons
[3] = lateral corticospinal tract, stimulated by BMAA dosing
[4] = anterior horn, 210 mg/kg/day, 140 days, median ± SEM
[5] = vervet spinal cord, 210 mg/kg/day oral, 140 days, median ± SEM
[6] = lateral corticospinal tracts, Cervical Segment
[7] = lateral corticospinal tracts, Lumbar Segment

## N[C@@H](CO)C(=O)O [L-serine]
Tau AT8+ NFT
  attenuation of BMAA-induced tau NFT density by coadministration of L-serine: 40%
CD68+ microglia; [3]
  attenuation of CD68+ microglial expression by coadministration of L-serine: 24%
CD68+ microglia; p=0.01, n=8
  effect of L-serine coadministration on CD68+ microglial nodule numbers, size and expression intensity: reduced
Any fraction of the vervet spinal cord
  effect of L-serine coadministration on median concentrations of BMAA in spinal cord: did not significantly reduce
IbA1+ microglia; [3]
  attenuation of mean Iba1+ microglia distribution by coadministration of L-serine: 32%
GFAP+ astroglia; anterior horn of the lumbar spinal cord, BMAA + L-serine both 210 mg/kg/day, p=0.008
  reduction of total number of GFAP+ astroglia by coadministration of L-serine: 21%
GFAP+ astroglia; anterior horn of the lumbar spinal cord, automated image analysis, p=0.007
  reduction of total area of GFAP+ astroglia by coadministration of L-serine: 20%

## CNC[C@H](N)C(=O)O [BMAA, β-N-methylamino-L-alanine]
Tau AT8+ NFT; p<0.0001, n=8
  increase of median cortical tau AT8+ NFT density: 3.1 fold
Myelinated axon fibers
  vervets with loss of myelinated axon fiber staining in the lateral corticospinal tracts: 44%
[1]; 2 of the 16 BMAA-dosed vervets
  vervets with cytoplasmic mislocalization of FUS protein: 12.5%
[1]; 12 of 16 vervets fed BMAA
  vervets with neurons positive for TDP-43 cytoplasmic inclusion bodies: 75%
[1]; [4]
  number of TDP-43+ motor neurons per region of interest, All Spinal Cord Segments: 4.5 ± 1.7
  number of TDP-43+ motor neurons per region of interest, Cervical Segment: 3.0 ± 1.9
  number of TDP-43+ motor neurons per region of interest, Lumbar Segment: 3.0 ± 3.1
[1]; toxin-dosed vervets, p=0.024
  mean density and distribution of TDP-43+ inclusions vs controls: 5 fold
BMAA and BMAA L-serine dosing cohorts pooled, ±13.7 SE
  median total BMAA concentration in spinal cord tissues: 61.4 µg/g
[5]
  Free BMAA per gram of spinal cord tissues: 8.9 ± 3.9 ^NS μg/g
  Hydrolyzed Protein Pellet BMAA per gram of spinal cord tissues: 0.5 ± 0.3 ^NS μg/g
  Hydrolyzed Supernatant BMAA per gram of spinal cord tissues: 34.0 ± 20.5 ^NS μg/g
IbA1+ microglia; BMAA-dosed primates, p=0.0039
  density and total area covered by IbA1+ microglia, cervical compared to lumbar segments: 1.5 fold
IbA1+ microglia; [6]
  IbA1+ Density: 1831.8 ± 206.9 Ct
  IbA1+ microglia Size: 15.4 ± 1.7^NS Px
IbA1+ microglia; [7]
  IbA1+ Density: 1213.7 ± 151.5^NS Ct
  IbA1+ microglia Size: 13.9 ± 1.9^NS Px
IbA1+ microglia; lateral corticospinal tracts, cervical spinal cord, p=0.011, n=8
  increase of total area covered by IbA1+ microglia vs rice flour controls: 1.6 fold
IbA1+ microglia; lateral corticospinal tracts, cervical spinal cord, p=0.048, n=8
  increase of median density of IbA1+ microglia vs rice flour controls: 1.7 fold
IbA1+ microglia; lateral corticospinal tracts, NS, p=0.260, n=8
  effect on the size of Iba1+ microglia: did not have a significant effect
GFAP+ astroglia; anterior horn of the lumbar spinal cord, p=0.008, n=8
  increase of median numbers of GFAP+ astroglia: 44%
GFAP+ astroglia; anterior horns of the lumbar spinal cord, p=0.008
  increase of density of GFAP+ activated astroglia: 1.4 fold
[2]; BMAA 210 mg/kg/day, 140 days, p=0.0016
  decrease of anterior horn neuronal numbers: 23%
[2]; cervical spinal cord anterior horns, BMAA 210 mg/kg/day, 140 days, p=0.024
  greater frequency of eosinophilic neurons vs rice flour controls: 4.3 fold
[2]; cervical spinal cord anterior horns, p<0.0001
  reduction in size of eosinophilic lower motor neurons: 40%
